{"source": "patent US6410594B1", "about": "“Substituted cyclopentane compounds useful as neuraminidase inhibitors” (Biocryst Pharmaceuticals, Inc., priority 1996, dated 2002)", "key": {"[1]": {"target": "H1N9 Influenza Neuraminidase (Influenza A virus, UniProt P03472)", "sequence (P03472 83-470 limits assumed)": "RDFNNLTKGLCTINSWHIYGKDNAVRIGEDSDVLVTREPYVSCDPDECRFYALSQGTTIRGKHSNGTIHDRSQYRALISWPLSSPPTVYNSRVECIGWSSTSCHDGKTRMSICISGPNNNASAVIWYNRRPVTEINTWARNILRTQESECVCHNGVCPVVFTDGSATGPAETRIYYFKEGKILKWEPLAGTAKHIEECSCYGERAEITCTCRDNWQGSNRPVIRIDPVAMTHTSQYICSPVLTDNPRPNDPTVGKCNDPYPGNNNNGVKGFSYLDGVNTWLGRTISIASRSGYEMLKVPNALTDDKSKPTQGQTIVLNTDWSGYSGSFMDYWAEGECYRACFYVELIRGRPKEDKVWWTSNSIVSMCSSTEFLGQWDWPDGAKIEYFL", "assay": "biochemical", "parameters": "species or system influenza virus (H1N9 strain)", "conditions": "10 min at 37° C.; read-out: Inhibition of H1N9 Influenza Neuraminidase IC50"}}, "note": "Where a name gives a salt, the structure may show the parent alone."}
{"compound": "CC(=O)NC(CO)[C@H]1CC(C(=O)O)C[C@@H]1NC(=N)N", "note": "(single isomer, unassigned; isomer a) [Example 6, 4β-{[(Amino)(imino)methyl]amino}-3α-[(2-hydroxy-1-methylcarbonylamino)ethyl]-1-cyclo-pentancarboxylic acid (isomer A at C-6)]", "values": [{"measurement": "melting point", "result": "121 to 122", "unit": "°C"}, {"measurement": "IC50", "setting": "[1]", "result": 90, "unit": "µM"}]}
{"compound": "CON(C)C(=O)C(NC(C)=O)[C@H]1C[C@](O)(C(=O)O)C[C@@H]1NC(=N)N", "note": "(some centres unmarked) [Example 19, c-3-{[(Amino)(imino)methyl]amino}-t-1-hydroxy-t-4{(methylcarbonylamino){[(methyl)-(methoxy)amino]carbonyl}methyl}cyclopentan-r-carboxylic acid trifluoroacetic acid (1:1)]", "values": [{"measurement": "melting point", "result": "160 to 216", "unit": "°C"}, {"measurement": "IC50", "setting": "[1]", "result": 16, "unit": "µM"}]}
{"compound": "CC(=O)NC(COC(=O)C(F)(F)F)[C@H]1C[C@](O)(C(=O)O)C[C@@H]1NC(=N)N", "note": "(single isomer, unassigned; isomer b) [Example 17, c-3-{[(Amino)(imino)methyl]amino}-t-1-hydroxy-t-4-[(1-methylcarbonylamino)(2-trifluoromethyl-carbonyloxy)ethyl]cyclopentan-r-carboxylic acid trifluoroacetic acid (4:3) (isomer B at C-6)]", "values": [{"measurement": "IC50", "setting": "[1]", "result": 2000, "unit": "µM"}]}
{"compound": "CC(=O)NC(CO)[C@H]1C[C@@](O)(C(=O)O)C[C@@H]1NC(=N)N", "note": "(single isomer, unassigned; isomer a) [Example 9, t-3-{[(Amino)(imino)methyl]amino}-t-1-hydroxy-c-4-[(2-hydroxymethyl)(1-methylcarbonyl-amino)ethyl]cyclopentan-r-carboxylic acid trifluoroacetic acid diethyl ether [20:15:2] (isomer A at C-6)]", "values": [{"measurement": "IC50", "setting": "[1]", "result": 600, "unit": "µM"}]}
{"compound": "CC(=O)NC(CO)[C@H]1CC(C(=O)O)C[C@@H]1NC(=N)N", "note": "(single isomer, unassigned; isomer b) [Example 7, Sodium 3β-{[(amino)(imino)methyl]amino}-4α-[(2-hydroxy)(1-methylcarbonylamino)ethyl]-cyclopentan-r-carboxylate:diethylether:hydrate (12:4:3), isomer B]", "values": [{"measurement": "IC50", "setting": "[1]", "result": 3800, "unit": "µM"}]}
{"compound": "CCCN(CCC)C(=O)C(NC(C)=O)[C@H]1C[C@@](O)(C(=O)O)C[C@@H]1N=C(N)N", "note": "(some centres unmarked) [Example 23, t-3-{[(Amino)(imino)methyl]amino}-c-4-[(di-n-propylaminocarbonyl)(methylcarbonylamino)-methyl]-t-hydroxycyclpentan-r-carboxylic acid trifluoroacetic acid (4:5)]", "values": [{"measurement": "IC50", "setting": "[1]", "result": 0.47, "unit": "µM"}]}
{"compound": "CC(=O)NC(C(O)C(O)CO)[C@H]1CC(C(=O)O)C[C@@H]1NC(=N)N", "note": "(single isomer, unassigned; isomer b) [Example 13, 3β-{[(Amino)(imino)methyl]amino}-4α-[(1-methylcarbonylamino)(2,3,4-trihydroxy)butyl]-cyclopentancarboxylic acid trifluoroacetic acid (1:2) (isomer B at C-1, isomer A at C-6, isomer B at C-7)]", "values": [{"measurement": "IC50", "setting": "[1]", "result": 4.3, "unit": "µM"}]}
{"compound": "N=C(N)NC[C@@H]1C[C@H](C(=O)O)C[C@H]1NC(=N)N", "note": "(relative stereo) [Example 5, t-3-{[(Amino)(imino)methyl]amino}-c-4-{{[(amino)(imino)methyl]amino}methyl}cyclopentan-r-carboxylic acid dihydrochloride hydrate 2-propanol (5:10:5:2)]", "values": [{"measurement": "IC50", "setting": "[1]", "result": 280, "unit": "µM"}]}
{"compound": "CC(=O)NC(C(O)C(O)CO)[C@H]1CC(C(=O)O)C[C@@H]1NC(=N)N", "note": "(single isomer, unassigned; isomer b) [Example 14, 3β-{[(Amino)(imino)methyl]amino}-4α-[(1-methylcarbonylamino)(2,3,4-trihydroxy)butyl]cyclo-pentancarboxylic acid trifluoroacetic acid (4:9) (isomer B at C-6, isomer A at C-1, C-7 and/or C-8)]", "values": [{"measurement": "IC50", "setting": "[1]", "result": 40, "unit": "µM"}]}
